Laboratory results reported in patent EP2210584A1, “Stable polymeric composition comprising an epothilone and an amphiphilic block copolymer” (priority 2009, dated 2010).

Assay: Detection of degradation products of sagopilone by HPLC chromatogram
Format: physicochemical
Settings: storage of 24 hours at 4°C
Protocol: The method for measuring the sagopilone content of the micellar dispersions as well as the detection of degradation products is determined by High Performance Liquid Chromatography. The analysis was done on a Agilent 1100 Series chromatography system consisting of a quaternary pump, an autoinjector, a column heater and a UV-detector from Agilent Technologies, Santa Clara, USA .

degradation of Sagopilone solubilized within the polymeric micelles: did not degrade
SMILES: C=CC[C@H]1C(=O)C(C)(C)[C@@H](O)CC(=O)O[C@H](c2ccc3sc(C)nc3c2)C[C@@H]2O[C@]2(C)CCC[C@H](C)[C@@H]1O [Sagopilone, (1S,3S,7S,10R,11S,12S,16R)-7,11-dihydroxy-10-(prop-2-en-1-yl)-3-(2-methylbenzothiazol-5-yl)-8,8,12,16-tetramethyl-4,17-dioxabicyclo[14.1.0]heptadecane-5,9-dione]
